“And” between values parts separate entries of the source, which are not always exact repeats. Equal values may be shown once. “Also recorded” adds a separate entry of the source. Read-outs that look alike come from different tables or passages of the source.
Tests used:
Format in all cases: cell-based, Plasmodium falciparum
[1] = tested on: Dd2-Polδ parasites; test: P. falciparum proliferation assay (72 h, fluorescent DNA-intercalating dye); conditions: Dd2-Polδ parasites
Description: (§1) For experiments with all other parasites, the effects of compounds of interest on parasite proliferation was measured in 96-well plates containing serial dilutions of the compounds in culture medium, with a fluorescent DNA-intercalating dye used to detect surviving parasites. The assays were initiated with erythrocytes infected with predominantly ring-stage parasites, and the starting parasitaemia and haematocrit were both 1%.

[2] = tested on: Dd2-Polδ-PfATP4^G358S parasites; test: as above; conditions: for IC50: Dd2-Polδ-PfATP4G358S parasites
Description: as §1

[3] = tested on: NF54^CTL parasites; test: P. falciparum proliferation assay (72 h, flow cytometry, SYBR Green I/MitoTracker); conditions: for FC (IC50) / FC (IC90): NF54CTL compared to NF54WT
Description: (§2) For the NF54-based lines and Dd2-B2-PfATP4^G358S and its parent, assays were initiated with cultures containing predominantly ring-stage parasites with a parasitaemia of 0.3% and a haematocrit of 1%. All assays using NF54 were performed in culture media containing 10% O + human serum. The duration of the assays was 72 h and the concentration of DMSO was <0.5% (v/v). Serial dilutions of the test compounds were performed using a Tecan D300e digital dispenser, with parasite cultures added manually. Parasite survival was assessed by flow cytometry on an Intellicyt iQue3 (Essen Bioscience), with 1× SYBR Green I (Invitrogen) and 200 nM MitoTracker Deep Red FM (Invitrogen) used to stain the nucleus and the mitochondria in live parasites, respectively. The gating strategy used to quantify parasite survival, performed using FlowJo version 10 (FlowJo LLC.), is illustrated in Supplementary Fig. 9. IC50 and IC90 values were calculated by linear interpolation of the dose-response data.

[4] = tested on: NF54^WT parasites; test: microbe, parasite or virus in culture; conditions: for FC (IC50) / FC (IC90): NF54WT, reference line
Description: as §2

[5] = tested on: parasite lines with a G358S mutation in PfATP4; test: P. falciparum proliferation assays, statements on all lines with the G358S mutation; conditions: G358S lines vs PfATP4 wild-type controls
Description: as §2, with “Two types of parasite proliferation assays were employed in this study, with both yielding highly consistent results. For” for “For”
as §1, with “1%. […] Fluorescence was measured using a FLUOstar OPTIMA plate reader (BMG LABTECH), with OPTIMA version 2.20R2 and MARS Data Analysis Software version 3.01 R2 (BMG LABTECH).” for “1%.”

[6] = tested on: NF54^G358S-2 parasites; test: P. falciparum proliferation assay (72 h, flow cytometry, SYBR Green I/MitoTracker)
Description: as §2

[7] = tested on: NF54^G358S-1 parasites; test: as above
Description: as §2

[8] = individual experiments, read-out: IC50 values
[9] = mean of the experiments, read-out: IC50 values, MEAN
[10] = NF54CTL parasites, individual experiments, read-out: IC50 values
[11] = NF54CTL parasites, individual experiments, read-out: IC90 values
[12] = Plasmodium falciparum, NF54, NF54CTL parasites, individual experiments, read-out: IC50 values
[13] = Plasmodium falciparum, NF54, NF54CTL parasites, individual experiments, read-out: IC90 values
[14] = Plasmodium falciparum, NF54, NF54CTL parasites, mean of the experiments, read-out: IC50 values, MEAN
[15] = Plasmodium falciparum, NF54, NF54CTL parasites, mean of the experiments, read-out: IC90 values, MEAN
[16] = NF54WT parasites, individual experiments, read-out: IC50 values
[17] = NF54WT parasites, individual experiments, read-out: IC90 values
[18] = Plasmodium falciparum, NF54, NF54WT parasites, mean of the experiments, read-out: IC50 values, MEAN
[19] = Plasmodium falciparum, NF54, NF54WT parasites, mean of the experiments, read-out: IC90 values, MEAN

| Compound | FC (IC50) [3] [fold] | FC (IC90) [3] [fold] | IC50 [3, 10] | IC90 [3, 11] | IC50 [3, 12] [nM] | IC90 [3, 13] [nM] | IC50 [3, 14] [nM] | IC90 [3, 15] [nM] | IC50 [4, 16] | IC90 [4, 17] | FC (IC50) [4] [fold] | FC (IC90) [4] [fold] | IC50 [4, 18] [nM] | IC90 [4, 19] [nM] | effect of the G358S mutation in PfATP4 on parasite susceptibility [5] | further results |
| --- | --- | --- | --- | --- | --- | --- | --- | --- | --- | --- | --- | --- | --- | --- | --- | --- |
| CCOC(=O)C1=CN(C)C=C(C(=O)OCC)C1c1cc(Br)c(OCC)c(OC)c1 [MMV006656] |  |  |  |  |  |  |  |  |  |  |  |  |  |  |  | IC50 [1, 8]: 435 nM and 243 nM and 394 nM and 305 nM; IC50 [1, 9]: 344 nM; IC50 [2, 8]: 1560 nM and 1990 nM and 1300 nM and 2350 nM; IC50 [2, 9]: 1800 nM; IC50 fold higher than that of Dd2-Polδ parent ([2]; Dd2-Polδ-PfATP4G358S vs Dd2-Polδ, mean ± SEM): 5.7 ± 1.3 fold |
| CC1(C)c2nc(-c3ccc(F)cc3)c(Nc3ccc(F)cc3)n2CCN1C(=O)CN [KAF156] | 0.7 | 0.8 | 5.1 nM and 4.4 nM and 4.5 nM and 5.9 nM and 4.7 nM | 13.8 nM and 9.19 nM and 9.36 nM and 8.54 nM and 9.44 nM and 9.66 nM | 5.5 | 12.6 | 4.9 | 10.4 | 6.9 nM and 7.1 nM and 5.4 nM | 14.7 nM and 12.9 nM and 12.4 nM and 9.88 nM and 13.6 nM and 9.68 nM | 1.0 | 1.0 | 6.7 | 13 | no impact; also recorded: no effect | IC50 ([4]; Plasmodium falciparum, NF54, NF54WT parasites, individual experiments, read-out: IC50 values): 7.2 nM; IC90 ([4]; Plasmodium falciparum, NF54, NF54WT parasites, individual experiments, read-out: IC90 values): 17.6 nM; IC50 ([4]; Plasmodium falciparum, NF54, NF54WT, 10% human serum, read-out: IC50 ± SEM): 6.7 ± 0.2 nM |
| COc1ccc2nc3cc(Cl)ccc3c(Nc3cc(CN4CCCC4)c(O)c(CN4CCCC4)c3)c2n1 [Pyronaridine] | 1.2 | 1.1 | 1.43 nM and 1.8 nM and 1.81 nM | 2.8 nM and 2.91 nM | 1.47 | 2.85 | 1.6 | 2.86 | 0.91 nM and 1.08 nM and 1.42 nM and 2.14 nM | 1.44 nM and 2.14 nM and 2.78 nM and 4.07 nM | 1.0 | 1.0 | 1.4 | 2.61 | no effect | FC (IC50) ([6]; NF54G358S-2 compared to NF54WT): 1.2 fold; FC (IC90) ([6]; NF54G358S-2 compared to NF54WT): 1.1 fold; IC50 ([6]; NF54G358S-2 parasites, individual experiments, read-out: IC50 values): 1.86 nM and 1.73 nM and 2.02 nM; IC90 ([6]; NF54G358S-2 parasites, individual experiments, read-out: IC90 values): 2.89 nM and 2.85 nM and 2.91 nM; IC90 ([6]; Plasmodium falciparum, NF54, NF54G358S-2, 10% human serum, read-out: IC90 ± SEM): 2.8 ± 0.1 nM; IC50 ([6]; Plasmodium falciparum, NF54, NF54G358S-2 parasites, individual experiments, read-out: IC50 values): 1.25 nM; IC90 ([6]; Plasmodium falciparum, NF54, NF54G358S-2 parasites, individual experiments, read-out: IC90 values): 2.63 nM; IC50 ([6]; Plasmodium falciparum, NF54, NF54G358S-2 parasites, mean of the experiments, read-out: IC50 values, MEAN): 1.7 nM; IC90 ([6]; Plasmodium falciparum, NF54, NF54G358S-2 parasites, mean of the experiments, read-out: IC90 values, MEAN): 2.82 nM; IC90 ([3]; Plasmodium falciparum, NF54, NF54CTL, 10% human serum, read-out: IC90 ± SEM): 2.9 ± 0.02 nM; FC (IC50) ([7]; NF54G358S-1 compared to NF54WT): 1.3 fold; FC (IC90) ([7]; NF54G358S-1 compared to NF54WT): 1.1 fold; IC50 ([7]; NF54G358S-1 parasites, individual experiments, read-out: IC50 values): 1.77 nM and 2.02 nM and 2.17 nM; IC90 ([7]; NF54G358S-1 parasites, individual experiments, read-out: IC90 values): 2.9 nM and 3.07 nM and 3.12 nM; IC50 ([7]; Plasmodium falciparum, NF54, NF54G358S-1 parasites, individual experiments, read-out: IC50 values): 1.24 nM; IC90 ([7]; Plasmodium falciparum, NF54, NF54G358S-1 parasites, individual experiments, read-out: IC90 values): 2.64 nM; IC50 ([7]; Plasmodium falciparum, NF54, NF54G358S-1 parasites, mean of the experiments, read-out: IC50 values, MEAN): 1.8 nM; IC90 ([7]; Plasmodium falciparum, NF54, NF54G358S-1 parasites, mean of the experiments, read-out: IC90 values, MEAN): 2.93 nM; IC90 ([4]; Plasmodium falciparum, NF54, NF54WT, 10% human serum, read-out: IC90 ± SEM): 2.6 ± 0.6 nM |

From publication PMC9525273 (Nature Communications, 2022)
